In patent US20260242391A1 (priority 2023, published 2026):
pEC50, pIC50: −log10 of the molar value.

Legend:
in vitro = details: human
HL-60 = HL-60 differentiation potency; assay type: cell-based; details: Homo sapiens

Row | pIC50 (in vitro) | pEC50 (HL-60) | SMILES
1 | < 4.70 | < 4.70 | C[C@H]1[C@H](OCC(=O)N2CCC(C(=O)O)CC2)O[C@@H]2O[C@@]3(C)CC[C@H]4[C@H](C)CC[C@@H]1[C@@]24OO3 [Compound 164, 1-(2-(((3R,5aS,6R,8aS, 9R,10R,12R, 12aR)-3,6,9-trimethyldeca-hydro-12H-3,12-epoxy[1,2]dioxepino[4,3-i]isochromen-10-yl)oxy)acetyl) piperidine-4-carboxylic acid]
2 | < 4.70 | < 4.70 | COC(=O)[C@@H]1CCN(CC[C@H]2O[C@@H]3O[C@@]4(C)CC[C@H]5[C@H](C)CC[C@@H]([C@H]2C)[C@@]35OO4)C1 [Compound 70, methyl (R)-1-(2-((3R,5aS,6R,8aS, 9R,10R,12R, 12aR)-3,6,9-trimethyldeca-hydro-12H-3,12-epoxy[1,2]dioxepino[4,3-i]isochromen-10-yl)ethyl) pyrrolidine-3-carboxylate]
3 | < 4.70 | < 4.70 | C[C@H]1[C@@H](CCN2CC(C(=O)O)C2)O[C@@H]2O[C@@]3(C)CC[C@H]4[C@H](C)CC[C@@H]1[C@@]24OO3 [Compound 68, 1-(2-((3R,5aS,6R,8aS, 9R,10R,12R, 12aR)-3,6,9-trimethyldeca-hydro-12H-3,12-epoxy[1,2]dioxepino[4,3-i]isochromen-10-yl)ethyl) azetidine-3-carboxylic acid]
4 | < 4.70 | 6.48 | C[C@H]1[C@@H](OCc2ccc(C(=O)O)o2)O[C@@H]2O[C@@]3(C)CC[C@H]4[C@H](C)CC[C@@H]1[C@@]24OO3 [Compound 32, 5-((((3R,5aS,6R, 8aS,9R,10S,12R, 12aR)-3,6,9-trimethyldeca-hydro-12H-3,12-epoxy[1,2]dioxepino[4,3-i]isochromen-10-yl)oxy)methyl) furan-2-carboxylic acid]
5 | 6.13 | 6.18 | C[C@H]1[C@H](NCCS(C)(=O)=O)O[C@@H]2O[C@@]3(C)CC[C@H]4[C@H](C)CC[C@@H]1[C@@]24OO3 [Compound 99, (3R,5aS,6R,8aS, 9R,10R,12R, 12aR)-3,6,9-trimethyl-N-(2-(methylsulfonyl)ethyl)decahydro-12H-3,12-epoxy [1,2]dioxepino [4,3-i]isochromen-10-amine]
6 | < 4.70 | 6.10 | C[C@H]1[C@@H](OC2C[C@H]3CC(C(=O)O)C[C@@H]23)O[C@@H]2O[C@@]3(C)CC[C@H]4[C@H](C)CC[C@@H]1[C@@]24OO3 (stereo partly drawn) [Compound 157, (1R,5R)-6-(((3R,5aS,6R,8aS, 9R,10S,12R, 12aR)-3,6,9-trimethyldeca-hydro-12H-3,12-epoxy[1,2]dioxepino[4,3-i]isochromen-10-yl)oxy)bicyclo [3.2.0]heptane-3-carboxylic acid]
7 | < 4.70 | < 4.70 | C[C@H]1[C@@H](OCC(=O)N2C[C@H](F)C[C@H]2C(=O)O)O[C@@H]2O[C@@]3(C)CC[C@H]4[C@H](C)CC[C@@H]1[C@@]24OO3 [Compound 150, (2S,4R)-4-fluoro-1-(2-(((3R,5aS,6R,8aS, 9R,10S,12R, 12aR)-3,6,9-trimethyldeca-hydro-12H-3,12-epoxy[1,2]dioxepino[4,3-i]isochromen-10-yl)oxy)acetyl) pyrrolidine-2-carboxylic acid]
8 | 7.00 | 7.37 | C[C@H]1[C@H](N2CC(S(C)(=O)=O)C2)O[C@@H]2O[C@@]3(C)CC[C@H]4[C@H](C)CC[C@@H]1[C@@]24OO3 [Compound 4, 3-(methylsulfonyl)-1-((3R,5aS,6R, 8aS,9R,10R, 12R,12aR)-3,6,9-trimethyldeca-hydro-1H-3,12-epoxy[1,2]dioxepino[4,3-i]isochromen-10-yl)azetidine]
9 | < 4.70 | 7.06 | C[C@H]1[C@@H](OC[C@H]2CC[C@@H](C(=O)O)CC2)O[C@@H]2O[C@@]3(C)CC[C@H]4[C@H](C)CC[C@@H]1[C@@]24OO3 [Compound 11, (1R,4s)-4-((((3R,5aS,6R,8aS, 9R,10S,12R, 12aR)-3,6,9-trimethyldeca-hydro-12H-3,12-epoxy[1,2]dioxepino[4,3-i]isochromen-10-yl)oxy)methyl) cyclohexane-1-carboxylic acid]
10 | < 4.70 | < 4.70 | C[C@H]1[C@@H](OCCS(C)(=O)=O)O[C@@H]2O[C@@]3(C)CC[C@H]4[C@H](C)CC[C@@H]1[C@@]24OO3 [Compound 90, (3R,5aS,6R,8aS, 9R,10S,12R, 12aR)-3,6,9-trimethyl-10-(2-(methylsulfonyl)ethoxy)deca-hydro-12H-3,12-epoxy[1,2] dioxepino[4,3-i] isochromene]
11 | < 4.70 | 6.71 | C[C@H]1[C@@H](OC[C@H]2CC[C@@H](C(=O)O)C2)O[C@@H]2O[C@@]3(C)CC[C@H]4[C@H](C)CC[C@@H]1[C@@]24OO3 [Compound 136, (1R,3S)-3-((((3R,5aS,6R, 8aS,9R,10S,12R, 12aR)-3,6,9-trimethyldeca-hydro-12H-3,12-epoxy[1,2]dioxepino[4,3-i]isochromen-10-yl)oxy)methyl) cyclopentane-1-carboxylic acid]
12 | 4.96 | 5.02 | C[C@H]1[C@H](NCCS(=O)(=O)N(C)C)O[C@@H]2O[C@@]3(C)CC[C@H]4[C@H](C)CC[C@@H]1[C@@]24OO3 [Compound 59, N,N-dimethyl-2-(((3R,5aS,6R, 8aS,9R,10R,12R, 12aR)-3,6,9-trimethyldeca-hydro-12H-3,12-epoxy[1,2]dioxepino[4,3-i]isochromen-10-yl)amino) ethane-1-sulfonamide]

Second part, the molecule before the results:

Row | SMILES | pIC50 (in vitro) | pEC50 (HL-60)
13 | C[C@H]1[C@@H](OCC2CCC(F)(F)CC2)O[C@@H]2O[C@@]3(C)CC[C@H]4[C@H](C)CC[C@@H]1[C@@]24OO3 [Compound 106, (3R,5aS,6R,8aS, 9R,10S,12R, 12aR)-10-((4,4-difluorocyclo-hexyl)methoxy)-3,6,9-trimethyldeca-hydro-12H-3,12-epoxy[1,2] dioxepino[4,3-i] isochromene] | 7.00 | 7.69
14 | C[C@H]1[C@@H](OCc2ccc(C(=O)O)c(F)c2)O[C@@H]2O[C@@]3(C)CC[C@H]4[C@H](C)CC[C@@H]1[C@@]24OO3 [Compound 24, 2-fluoro-4-((((3R,5aS,6R,8aS, 9R,10S,12R, 12aR)-3,6,9-trimethyldeca-hydro-12H-3,12-epoxy[1,2]dioxepino[4,3-i]isochromen-10-yl)oxy)methyl) benzoic acid] | < 4.70 | 6.68
15 | C[C@H]1[C@@H](OCCCc2ccc(C(=O)O)cc2)O[C@@H]2O[C@@]3(C)CC[C@H]4[C@H](C)CC[C@@H]1[C@@]24OO3 [Compound 10, 4-(3-(((3R,5aS,6R, 8aS,9R,10S,12R, 12aR)-3,6,9-trimethyldeca-hydro-12H-3,12-epoxy[1,2]dioxepino[4,3-i]isochromen-10-yl)oxy)propyl) benzoic acid] | < 5.00 | 7.20
16 | C[C@H]1[C@@H](OCc2cc(C(=O)O)cc(C(=O)O)c2)O[C@@H]2O[C@@]3(C)CC[C@H]4[C@H](C)CC[C@@H]1[C@@]24OO3 [Compound 141, 5-((((3R,5aS,6R,8aS, 9R,10S,12R, 12aR)-3,6,9-trimethyldeca-hydro-12H-3,12-epoxy[1,2]dioxepino[4,3-i]isochromen-10-yl)oxy)methyl) isophthalic acid] | < 4.70 | < 4.70
17 | C[C@H]1[C@@H](Oc2ccc(CC(=O)O)cc2Cl)O[C@@H]2O[C@@]3(C)CC[C@H]4[C@H](C)CC[C@@H]1[C@@]24OO3 [Compound 16, 2-(3-chloro-4-(((3R,5aS,6R,8aS, 9R,10S,12R, 12aR)-3,6,9-trimethyldeca-hydro-12H-3,12-epoxy[1,2]dioxepino[4,3-i]isochromen-10-yl)oxy)phenyl) acetic acid] | < 5.00 | 7.02
18 | C[C@H]1[C@@H](OC[C@H]2CC[C@@H](C(=O)NC3CC3)CC2)O[C@@H]2O[C@@]3(C)CC[C@H]4[C@H](C)CC[C@@H]1[C@@]24OO3 [Compound 143, (1R,4s)-N-cyclopropyl-4-((((3R,5aS,6R,8aS, 9R,10S,12R, 12aR)-3,6,9-trimethyldeca-hydro-12H-3,12-epoxy[1,2]dioxepino[4,3-i]isochromen-10-yl)oxy)methyl) cyclohexane-1-carboxamide] | 6.00 | 7.14
19 | C[C@H]1[C@@H](OCc2ccc(S(N)(=O)=O)cc2)O[C@@H]2O[C@@]3(C)CC[C@H]4[C@H](C)CC[C@@H]1[C@@]24OO3 [Compound 18, 4-((((3R,5aS,6R, 8aS,9R,10S,12R, 12aR)-3,6,9-trimethyldeca-hydro-12H-3,12-epoxy[1,2]dioxepino[4,3-i]isochromen-10-yl)oxy)methyl) benzene-sulfonamide] | 5.65 | 7.00
20 | C[C@H]1[C@@H](Oc2ccc(CC(=O)O)cc2F)O[C@@H]2O[C@@]3(C)CC[C@H]4[C@H](C)CC[C@@H]1[C@@]24OO3 [Compound 9, 2-(3-fluoro-4-(((3R,5aS,6R, 8aS,9R,10S,12R, 12aR)-3,6,9-trimethyldeca-hydro-12H-3,12-epoxy[1,2]dioxepino[4,3-i]isochromen-10-yl)oxy)phenyl) acetic acid] | < 4.70 | 7.23
21 | C[C@H]1[C@@H](Oc2ccc(CC(=O)O)c(F)c2F)O[C@@H]2O[C@@]3(C)CC[C@H]4[C@H](C)CC[C@@H]1[C@@]24OO3 [Compound 23, 2-(2,3-difluoro-4-(((3R,5aS,6R,8aS, 9R,10S,12R, 12aR)-3,6,9-trimethyldeca-hydro-12H-3,12-epoxy[1,2]dioxepino[4,3-i]isochromen-10-yl)oxy)phenyl) acetic acid] | 4.82 | 6.72
22 | C[C@H]1[C@@H](OCc2cc(Cl)cc(C(=O)O)c2)O[C@@H]2O[C@@]3(C)CC[C@H]4[C@H](C)CC[C@@H]1[C@@]24OO3 [Compound 178, 3-chloro-5-((((3R,5aS,6R,8aS, 9R,10S,12R, 12aR)-3,6,9-trimethyldeca-hydro-12H-3,12-epoxy[1,2]dioxepino[4,3-i]isochromen-10-yl)oxy)methyl) benzoic acid] | 5.40 | 6.61
23 | Cc1cc(CO[C@@H]2O[C@@H]3O[C@@]4(C)CC[C@H]5[C@H](C)CC[C@@H]([C@H]2C)[C@@]35OO4)ccc1C(=O)O [Compound 51, 2-methyl-4-((((3R,5aS,6R,8aS, 9R,10R,12R, 12aR)-3,6,9-trimethyldeca-hydro-12H-3,12-epoxy[1,2]dioxepino[4,3-i]isochromen-10-yl)oxy)methyl) benzoic acid] | < 4.70 | 5.62
